Molecules are shown by their SMILES. Counter-ions that a name gives are not always drawn.

In this assay the target is human aldose reductase (hALR2) (Homo sapiens, UniProt P15121). The assay can be described thus: inhibition of human aldose reductase (hALR2) activity, methods similar to Butera et al. Type of assay: biochemical. To be noted: concentration to inhibit activity by 50%, read-out: hAR-#1 (aldose). Here is the method: Representative compounds of the invention are tested for their potency, selectivity and efficacy as inhibitors of human aldose reductase. […] Using this assay, the concentrations required to inhibit human aldose reductase (hALR2) activity by 50% (IC50) are determined.
For `O=C(O)Cc1cc(Cc2nc3c(F)c(F)cc(F)c3s2)cnc1-c1ccccc1` [Example 13, 2-phenyl-5-(4,5,7-trifluoro-benzothiazol-2-ylmethyl)-pyridin-3-yl-acetic acid hydrochloride], the IC50 was 8 nM.

With `O=C(O)Cc1cnc(-c2ccccc2)c(Cc2nc3c(F)c(F)cc(F)c3s2)c1` [Example 15, 6-Phenyl-5-(4,5,7-trifluoro-benzothiazol-2-ylmethyl)-pyridin-3-yl-acetic acid hydrochloride], the IC50 was determined as 6 nM.

Take `Cc1c(CC(=O)O)csc1Cc1nc2c(F)c(F)cc(F)c2s1` [Example 24, [4-methyl-5-(4,5,7-trifluoro-benzothiazol-2-ylmethyl)-thiophen-3-yl]-acetic acid]: the IC50 is 31 nM.

Take `Cc1nc(C)c(Cc2nc3c(F)c(F)cc(F)c3s2)c(C)c1CC(=O)O` [Example 9, 2,4,6-trimethyl-5-(4,5,7-trifluoro-benzothiazol-2-ylmethyl)-pyridin-3-yl-acetic acid hydrochloride]: the IC50 is 6 nM.

For the molecule `O=C(O)Cc1cc(Cc2nc3c(F)c(F)cc(F)c3s2)cnc1Cc1ccccc1` [Example 12, 2-benzyl-5-(4,5,7-trifluoro-benzothiazol-2-ylmethyl)-pyridin-3-yl-acetic acid hydrochloride], the IC50 is 5 nM.

As to `CCc1ncc(Cc2nc3c(F)c(F)cc(F)c3s2)cc1CC(=O)O` [Example 11, 2-ethyl-5-(4,5,7-trifluoro-benzothiazol-2-ylmethyl)-pyridin-3-yl-acetic acid hydrochloride], the IC50 came to 6 nM.

As for `O=C(O)Cc1cnc(Cc2ccccc2)c(Cc2nc3c(F)c(F)cc(F)c3s2)c1` [Example 16, 6-Benzyl-5-(4,5,7-trifluoro-benzothiazol-2-ylmethyl)-pyridin-3-yl-acetic acid hydrochloride], the IC50 was 7 nM.

As to `O=C(O)Cc1csc(Cc2nc3c(F)c(F)cc(F)c3s2)n1` [Example 25, [2-(4,5,7-Trifluoro-benzothiazol-2-ylmethyl)-thiazol-4-yl]-acetic acid], the IC50 is 130 nM.

On to `Cc1ccc2c(Cc3nc4c(F)c(F)cc(F)c4s3)cn(CC(=O)O)c2n1` [Example 2, [6-methyl-3-(4,5,7-trifluoro-benzothiazol-2-ylmethyl)-pyrrolo[2,3-b]pyridin-1-yl]-acetic acid], for which the IC50 worked out at 8 nM.

In the case of `O=C(O)Cc1cncc(Cc2nc3c(F)c(F)cc(F)c3s2)c1` [Example 8, 5-(4,5,7-trifluoro-benzothiazol-2-ylmethyl)-pyridin-3-yl-acetic acid hydrochloride], the IC50 came out at 8 nM.

Consider `CCc1c(CC(=O)O)c(C)nc(C)c1Cc1nc2c(F)c(F)cc(F)c2s1` [Example 10, 2,6-dimethyl-4-ethyl-5-(4,5,7-trifluoro-benzothiazol-2-ylmethyl)-pyridin-3-yl-acetic acid hydrochloride], for which the IC50 was 31 nM.
